For one experiment, the target named is Prothrombin (Bos taurus, UniProt P00735). The experiment in a line: Inhibition of plasma fibrin clot formation by thrombin in vitro. Format: functional, cell-free.
In the next experiment the target is Prothrombin (Bos taurus) (UniProt P00735). The experiment can be described thus: Relative potency for fibrin clot inhibition compared to hirudin55-65. It is filed as functional. Details: unit not given here.

Square brackets hold non-standard residues; d marks the D form. Peptide text beside a SMILES is read from it. sY = N[C@@H](Cc1ccc(OS(=O)(=O)O)cc1)C(=O)O; Sar = CNCC(=O)O

The IC50 is the concentration that inhibits the measured activity by half. For `CC(C)C[C@H](NC(=O)[C@H](Cc1ccc(OS(=O)(=O)O)cc1)NC(=O)[C@H](CCC(=O)O)NC(=O)[C@H](CCC(=O)O)NC(=O)[C@@H]1CCCN1C(=O)[C@H](CC(C)C)NC(=O)[C@H](CCC(=O)O)NC(=O)[C@H](CCC(=O)O)NC(=O)[C@H](Cc1ccccc1)NC(=O)[C@H](CC(=O)O)NC(=O)CN)C(=O)N[C@@H](CCC(N)=O)C(=O)O` (H-GDFEELPEE[sY]LQ-OH), the IC50 on Prothrombin is 8.3 µM. On Prothrombin (Bos taurus), this compound yielded a Relative potency of 86. Taken in the same sequence, the figures for `CC[C@H](C)[C@H](NC(=O)[C@H](CCC(=O)O)NC(=O)[C@H](CCC(=O)O)NC(=O)[C@H](Cc1ccc(O)cc1)NC(=O)[C@H](CC(=O)O)NC(=O)CN)C(=O)N1CCC[C@H]1C(=O)N[C@@H](CCC(=O)O)C(=O)N[C@@H](CCC(=O)O)C(=O)N[C@@H](Cc1ccc(OS(=O)(=O)O)cc1)C(=O)N[C@@H](CC(C)C)C(=O)N[C@@H](CCC(N)=O)C(=O)O` (H-GDYEEIPEE[sY]LQ-OH) were 3.3 µM and 215. Turning to `CC[C@H](C)[C@H](NC(=O)[C@H](CCC(=O)O)NC(=O)[C@H](CCC(=O)O)NC(=O)[C@H](Cc1ccccc1)NC(=O)[C@@H](N)CC(=O)O)C(=O)N[C@@H](C)C(=O)N[C@@H](CCC(=O)O)C(=O)N[C@@H](CCC(=O)O)C(=O)N[C@@H](Cc1ccc(OS(=O)(=O)O)cc1)C(=O)N[C@@H](CC(C)C)C(=O)N[C@@H](CCC(N)=O)C(=O)O` (H-DFEEIAEE[sY]LQ-OH), the IC50 at Prothrombin is greater than 200 µM. At Prothrombin (Bos taurus), this compound came in with a Relative potency of less than 3.

For `CC[C@H](C)[C@H](NC(=O)[C@H](CCC(=O)O)NC(=O)[C@H](CCC(=O)O)NC(=O)[C@H](Cc1ccccc1)NC(=O)[C@@H](N)CC(=O)O)C(=O)N1CCC[C@H]1C(=O)N[C@@H](CCC(=O)O)C(=O)N[C@@H](CCC(=O)O)C(=O)N[C@@H](CCC(=O)O)C(=O)N[C@@H](CC(C)C)C(=O)N[C@@H](C)C(=O)O` (H-DFEEIPEEELA-OH), at Prothrombin, half-maximal inhibition (IC50) required 59.1 µM. The compound also gave a Relative potency at Prothrombin (Bos taurus) of 12. Taken in the same sequence, the figures for `CC[C@H](C)[C@H](NC(=O)[C@H](CCC(=O)O)NC(=O)[C@H](CCC(=O)O)NC(=O)[C@H](Cc1ccccc1)NC(=O)[C@H](CC(=O)O)NC(=O)CN)C(=O)N(C)CC(=O)N[C@@H](CCC(=O)O)C(=O)N[C@@H](CCC(=O)O)C(=O)N[C@@H](Cc1ccc(OS(=O)(=O)O)cc1)C(=O)N[C@@H](CC(C)C)C(=O)N[C@@H](CCC(N)=O)C(=O)O` (H-GDFEEI[Sar]EE[sY]LQ-OH) were 17.3 µM and 41. On the same counts, the results for `CC[C@H](C)[C@H](NC(=O)[C@H](CCC(=O)O)NC(=O)[C@H](CCC(=O)O)NC(=O)[C@H](Cc1ccccc1)NC(=O)[C@@H](N)CC(=O)O)C(=O)N1CCC[C@H]1C(=O)N[C@@H](CCC(=O)O)C(=O)N[C@@H](CCC(=O)O)C(=O)N[C@@H](C)C(=O)N[C@@H](CC(C)C)C(=O)N[C@@H](CCC(N)=O)C(=O)O` (H-DFEEIPEEALQ-OH) are 13.6 µM and 52. `CC[C@H](C)[C@H](NC(=O)[C@H](CCC(=O)O)NC(=O)[C@H](CCC(=O)O)NC(=O)[C@H](CCC(=O)O)NC(=O)[C@@H](N)CC(=O)O)C(=O)N1CCC[C@H]1C(=O)N[C@@H](CCC(=O)O)C(=O)N[C@@H](CCC(=O)O)C(=O)N[C@@H](Cc1ccc(OS(=O)(=O)O)cc1)C(=O)N[C@@H](CC(C)C)C(=O)N[C@@H](CCC(N)=O)C(=O)O` (H-DEEEIPEE[sY]LQ-OH) registered an IC50 at Prothrombin greater than 200 µM. At Prothrombin (Bos taurus), this compound yielded a Relative potency of less than 2. Taken in the same sequence, the figures for `CC[C@H](C)[C@H](NC(=O)[C@H](CCC(=O)O)NC(=O)[C@H](CCC(=O)O)NC(=O)[C@H](CC(C)C)NC(=O)[C@@H](N)CC(=O)O)C(=O)N1CCC[C@H]1C(=O)N[C@@H](CCC(=O)O)C(=O)N[C@@H](CCC(=O)O)C(=O)N[C@@H](Cc1ccc(OS(=O)(=O)O)cc1)C(=O)N[C@@H](CC(C)C)C(=O)N[C@@H](CCC(N)=O)C(=O)O` (H-DLEEIPEE[sY]LQ-OH) were greater than 200 µM and less than 2. Take `CC[C@H](C)[C@H](NC(=O)[C@H](CCC(=O)O)NC(=O)[C@H](CCC(=O)O)NC(=O)[C@H](Cc1ccccc1)NC(=O)[C@H](CC(=O)O)NC(=O)CNC(=O)[C@H](CC(=O)O)NC(=O)[C@H](CC(N)=O)NC(=O)[C@H](Cc1cnc[nH]1)NC(=O)[C@H](CO)NC(=O)[C@H](CCC(N)=O)NC(=O)[C@@H]1CCCN1C(=O)[C@H](CCCCN)NC(=O)[C@@H]1CCCN1C(=O)[C@@H](NC(C)=O)[C@@H](C)O)C(=O)N1CCC[C@H]1C(=O)N[C@@H](CCC(=O)O)C(=O)N[C@@H](CCC(=O)O)C(=O)N[C@@H](Cc1ccc(OS(=O)(=O)O)cc1)C(=O)N[C@@H](CC(C)C)C(=O)N[C@@H](CCC(N)=O)C(=O)O`: inhibition against Prothrombin was half-maximal at 1.6 µM (IC50). `CC[C@H](C)[C@H](NC(=O)[C@H](CCC(=O)O)NC(=O)[C@H](CCC(=O)O)NC(=O)[C@H](Cc1ccccc1)NC(=O)[C@@H](N)CC(=O)O)C(=O)N1CCC[C@H]1C(=O)N[C@@H](CCC(=O)O)C(=O)N[C@@H](C)C(=O)N[C@@H](Cc1ccc(OS(=O)(=O)O)cc1)C(=O)N[C@@H](CC(C)C)C(=O)N[C@@H](CCC(N)=O)C(=O)O` (H-DFEEIPEA[sY]LQ-OH): the concentration for half-maximal inhibition (IC50) against Prothrombin amounted to 42.8 µM. For the same compound, the Relative potency at Prothrombin (Bos taurus) came out at 17. Taken in the same sequence, the figures for `CC(C)C[C@H](NC(=O)[C@H](Cc1ccc(OS(=O)(=O)O)cc1)NC(=O)[C@H](CCC(=O)O)NC(=O)[C@H](CCC(=O)O)NC(=O)[C@@H]1CCCN1C(=O)[C@H](C)NC(=O)[C@H](CCC(=O)O)NC(=O)[C@H](CCC(=O)O)NC(=O)[C@H](Cc1ccccc1)NC(=O)[C@@H](N)CC(=O)O)C(=O)N[C@@H](CCC(N)=O)C(=O)O` (H-DFEEAPEE[sY]LQ-OH) were greater than 200 µM and less than 3. At Prothrombin, `CC(C)CC(NC(=O)[C@H](Cc1ccc(OS(=O)(=O)O)cc1)NC(=O)[C@H](CCC(=O)O)NC(=O)[C@H](CCC(=O)O)NC(=O)[C@@H]1CCCN1C(=O)C(CC(C)C)NC(=O)[C@H](CCC(=O)O)NC(=O)[C@H](CCC(=O)O)NC(=O)[C@H](Cc1ccccc1)NC(=O)[C@@H](N)CC(=O)O)C(=O)N[C@@H](C)C(=O)O` (stereo in doubt) gave an IC50 greater than 200 µM. On Prothrombin (Bos taurus), this compound showed a Relative potency of less than 3. Taken in the same sequence, the figures for `CC[C@H](C)[C@H](NC(=O)[C@H](C)NC(=O)[C@H](CCC(=O)O)NC(=O)[C@H](Cc1ccccc1)NC(=O)[C@@H](N)CC(=O)O)C(=O)N1CCC[C@H]1C(=O)N[C@@H](CCC(=O)O)C(=O)N[C@@H](CCC(=O)O)C(=O)N[C@@H](Cc1ccc(OS(=O)(=O)O)cc1)C(=O)N[C@@H](CC(C)C)C(=O)N[C@@H](CCC(N)=O)C(=O)O` (H-DFEAIPEE[sY]LQ-OH) were 13.3 µM and 53. On the same counts, the results for `CC[C@H](C)[C@H](NC(=O)[C@H](CCC(=O)O)NC(=O)[C@H](CCC(=O)O)NC(=O)[C@H](Cc1ccccc1)NC(=O)[C@H](CC(=O)O)NC(=O)CN)C(=O)N[C@H](C)C(=O)N[C@@H](CCC(=O)O)C(=O)N[C@@H](CCC(=O)O)C(=O)N[C@@H](Cc1ccc(OS(=O)(=O)O)cc1)C(=O)N[C@@H](CC(C)C)C(=O)N[C@@H](CCC(N)=O)C(=O)O` are 27 µM and 26. `CC[C@H](C)[C@H](NC(=O)[C@H](CCC(=O)O)NC(=O)[C@H](C)NC(=O)[C@H](Cc1ccccc1)NC(=O)[C@@H](N)CC(=O)O)C(=O)N1CCC[C@H]1C(=O)N[C@@H](CCC(=O)O)C(=O)N[C@@H](CCC(=O)O)C(=O)N[C@@H](Cc1ccc(OS(=O)(=O)O)cc1)C(=O)N[C@@H](CC(C)C)C(=O)N[C@@H](CCC(N)=O)C(=O)O` (H-DFAEIPEE[sY]LQ-OH) registered an IC50 against Prothrombin greater than 200 µM. Moreover, on Prothrombin (Bos taurus), the Relative potency was less than 3.

Regarding `CC[C@H](C)[C@H](NC(=O)[C@H](CCC(=O)O)NC(=O)[C@H](CCC(=O)O)NC(=O)[C@H](Cc1ccccc1)NC(=O)[C@@H](N)CC(=O)O)C(=O)N1CCC[C@H]1C(=O)N[C@@H](CCC(=O)O)C(=O)N[C@@H](CCC(=O)O)C(=O)N[C@@H](Cc1ccc(OS(=O)(=O)O)cc1)C(=O)N[C@@H](C)C(=O)N[C@@H](CCC(N)=O)C(=O)O` (H-DFEEIPEE[sY]AQ-OH), on Prothrombin, the half-maximal inhibitory concentration (IC50) is greater than 200 µM. The compound also displayed a Relative potency on Prothrombin (Bos taurus) of less than 3. Turning to `CC[C@H](C)[C@H](NC(=O)[C@H](CCC(=O)O)NC(=O)[C@H](CCC(=O)O)NC(=O)[C@H](Cc1ccccc1)NC(=O)[C@@H](N)CC(=O)O)C(=O)N1CCC[C@H]1C(=O)N[C@@H](C)C(=O)N[C@@H](CCC(=O)O)C(=O)N[C@@H](Cc1ccc(OS(=O)(=O)O)cc1)C(=O)N[C@@H](CC(C)C)C(=O)N[C@@H](CCC(N)=O)C(=O)O` (H-DFEEIPAE[sY]LQ-OH), on Prothrombin, the IC50 was determined as 18.5 µM. This compound also showed a Relative potency on Prothrombin (Bos taurus) of 38.

For the origin of these results see ChEMBL document CHEMBL1123843, “Anticoagulant peptides: nature of the interaction of the C-terminal region of hirudin with a noncatalytic binding site on thrombin” (J Med Chem, 1987).
